Test results from PMC3684613 (PLoS ONE, 2013).
Like-named read-outs stand apart in the source and are kept apart here.

How the values were obtained:
[1] = system: P. falciparum 3D7; experiment: DAPI stain fluorescent high content imaging assay, P. falciparum 3D7 (confirmatory screen, Avery); details: Plasmodium falciparum; for EC50: 3D7, read-out: EC50_nM; for inhibition of growth at 5 µM: 3D7, read-out: percent_inh @ 5 uM
[2] = system: P. falciparum 3D7; parameters: method as in ChEMBL-NTD; details: ref ChEMBL-NTD, cited from earlier work
[3] = values follow the order of the source (GNF; GSK; StJude)
[4] = original screening data, source (GSK, GNF, StJude), several values separated by ';' in order of sources

SMILES | EC50 [1] [µM] | inhibition of growth at 5 µM [1] [%] | further results
O=C(Nc1ccc(Cl)c(Cl)c1)Nc1ccc(Cl)c(Cl)c1 [MMV665852] | 1.16 | 96 | EC50 [2, 3]: 1.03 µM
COc1ccc2c(c1OC)C(=O)N1c3ccccc3N=C(c3ccc(C)cc3)CC21 (centres unmarked) [MMV000917] | 1.24 | 93 | EC50 ([2]; source StJude (SJ ids)): 2.53 µM
CC(C)=CCN1CCC(C(=O)Nc2ccc(-c3nc4ccccc4[nH]3)cc2)CC1 [MMV665946] | 1.16 | 96 | EC50 ([2]; source GSK): 0.908 µM; EC50 ([2]; source StJude): 1.34 µM
Cc1cc(C)c2nc(N3CCC(C(=O)NCCCN4CCC(N5CCCCC5)CC4)CC3)sc2c1 [MMV019780] | 0.697 | 98 | EC50 ([2]; source GSK): 0.838 µM
CC(C)(C)CC(C)(C)NCC(O)COc1ccc2c(c1)CCC2 (centres unmarked) [MMV665817] | – | 78 | EC50 ([2]; source StJude): 4.42 µM
FC(F)(F)c1ccc(Nc2nnnc3ccccc23)cc1 [MMV665935] | – | 77 | EC50 ([2]; source GNF): 7.72 µM; EC50 ([2]; source GSK): 0.692 µM
COCCNCC(O)Cn1c2ccc(Cl)cc2c2cc(Cl)ccc21 (centres unmarked) [MMV019017] | 1.01 | – | EC50 [2, 4]: 0.052 µM
CCN1CCN(c2c(C(=O)c3ccccc3)cnc3cc(OC)c(OC)cc23)CC1 [MMV008474] | – | 59 | EC50 ([2]; source GNF (GNF-Pf ids)): 3.02 µM
COc1ccc(C)c2sc(N(Cc3cccnc3)C(=O)c3ccc(C#N)cc3)nc12 [MMV001241] | – | 91 | EC50 ([2]; source StJude (SJ ids)): 15 µM
Cc1cc(N(C)C)nc(Nc2ccc(NC(=O)Nc3ccccc3)cc2)n1 [MMV020243] | 1.15 | – | EC50 [2, 3]: 0.134 µM
CCCc1c(CC)c(=N)c2ccccc2n1C [MMV008416] | 0.242 | 69 | EC50 ([2]; source GNF (GNF-Pf id)): 0.762 µM
COc1ccc(-c2nc3cc(Cc4ccc5[nH]c(-c6ccc(OC)cc6)nc5c4)ccc3[nH]2)cc1 [MMV007384] | 0.176 | 98 | EC50 ([2]; source GNF (GNF-Pf id)): 0.234 µM
Oc1c(CN2CCN(c3ccccc3F)CC2)cc(Br)c2cccnc12 [MMV000760] | – | 91 | EC50 [2, 4]: 3.76 µM
CSC1=NC(=Nc2c(C)cccc2C)C2(CCC(C(C)(C)C)CC2)N1c1ccc(Cl)cc1 (centres unmarked) [MMV666596] | 0.135 | 96 | EC50 ([2]; source GNF (GNF-Pf id)): 1.48 µM
O=C(NC1CCN(Cc2ccccc2)CC1)c1cc(C(=O)NC2CCN(Cc3ccccc3)CC2)cc(C(=O)NC2CCN(Cc3ccccc3)CC2)c1 [MMV019881] | 0.646 | 98 | EC50 [2, 3]: 1.04 µM
O=C(Cc1ccccc1)NC(c1ccc(Cl)cc1)c1c(O)ccc2ccccc12 (centres unmarked) [MMV665972] | 1.14 | 97 | EC50 [2, 3]: 15 µM
Cc1ccc2cc3c(N)c4c(C)ccc(C)c4nc3nc2c1 [MMV666079] | 1.31 | 98 | EC50 ([2]; source GNF (GNF-Pf ids)): 0.431 µM
Oc1ccccc1CNCC12CC3CC(CC(C3)C1)C2 [MMV020788] | 0.0226 | 96 | EC50 ([2]; source GSK (TCMDC id)): 0.279 µM
CC(=O)c1ccc(NC(=O)CSc2nc(-c3ccccc3Cl)ns2)cc1 [MMV666124] | – | – | inhibition at 2.5 µM ([1]; 3D7, read-out: % inh. At 2.5 uM): 88%; EC50 ([2]; source GSK (TCMDC ids)): 1.13 µM
Cc1ccc(CSCc2ccc(C(=O)NC3CC3)o2)cc1 [MMV007571] | 0.635 | 97 | EC50 ([2]; source GNF): 0.418 µM
OC(CNC1CCCC1)Cn1c2ccccc2c2ccccc21 (centres unmarked) [MMV000848] | 0.66 | 97 | EC50 [2, 4]: 1.08 µM
CCC(O)c1ccc(Br)cc1NC(=O)c1cccc(Cl)c1 (centres unmarked) [MMV020654] | 0.64 | 97 | EC50 [2, 4]: 1.02 µM
CC(C)CCNCC(O)Cn1c2ccccc2c2ccccc21 (centres unmarked) [MMV006787] | 0.473 | 97 | EC50 ([2]; source GNF (GNF-Pf ids)): 0.201 µM
Cc1cc(Nc2ccc3ccccc3c2)n2ncnc2n1 [MMV011099] | 0.242 | – | EC50 ([2]; source GSK (TCMDC id)): 0.173 µM
COc1ccc(Br)cc1C1Nc2ccc3ccccc3c2C2=C1C(=O)CC(c1ccccc1)C2 (centres unmarked) [MMV020885] | 0.18 | 95 | EC50 ([2]; source GSK (TCMDC id)): 0.59 µM
COc1ccc(-c2cc(=O)oc3c4c(ccc23)OCN(Cc2ccc(F)cc2)C4)cc1 [MMV000604] | 0.735 | 96 | EC50 ([2]; source StJude (SJ ids)): 5.21 µM
CN1C=C(c2ccc3ccccc3n2)C(c2c[nH]c3ccccc23)c2ccccc21 (centres unmarked) [MMV008160] | 0.552 | 95 | EC50 [2, 3]: 1.14 µM
CCCCc1c(CCC)c(=N)c2ccccc2n1C [MMV007764] | 0.716 | 77 | EC50 [2, 3]: 0.311 µM
COc1cc(-c2nc(-c3ccccc3)c(-c3ccccc3)[nH]2)cc(OC)c1O [MMV020750] | 1.18 | 97 | EC50 [2, 3]: 0.774 µM
